Source: patent US4570013A, “Biphenylylalkanoic acid derivatives, methods of preparation and pharmaceutical compositions therefrom” (Dr. L. Zambeletti S.p.A., priority 1983, dated 1986)
Like-named read-outs stand apart in the source and are kept apart here.

Key:
[1] = tested on: Hyperthermia caused by brewer's yeast in rats; assay: brewer's yeast hyperthermia (method of C. Winter), antipyretic activity; format: in vivo; settings: for ED50: Rattus norvegicus, po, rats, os, read-out: Antipyretic activity (temperature increase by brewer's yeast, in rats) ED50
Excerpt: The antipyretic activity has been studied according to the method of C. Winter, Toxicol. and Appl. Pharmacol., 5, 247 (1963), in rats, by determining the ability of the substance to reduce the increase of body temperature caused by the subcutaneous administration of brewer's yeast.

[2] = tested on: oedema induced in the rats' paw by intradermic injection of carrageenin; assay: carrageenin-induced paw oedema (method of Winter), antiinflammatory activity; format: in vivo; settings: Rattus norvegicus, po, os, read-out: Antiinflammatory activity (oedema caused by carrageenin in rats) ED50
in vivo = settings: rat, po
[3] = tested on: writhings caused by 2-phenylparabenzoquinone in mice; assay: writhing test (method of Siegmund), 2-phenylparabenzoquinone, analgesic activity; format: in vivo, Swiss mice; settings: for ED50: Mus musculus, po; for Contorsions % (change vs controls) / No. Contorsions: orally at ED50: biphenylylacetic acid 12, Ia 32 mg/kg
Excerpt: The analgesic activity has been studied according to the method described by Siegmund (E. Siegmund et al, Proc. Soc. Exptl. Biol. Med., 95, 729 (1957)), according to which the algogenic stimulus consists of the intraperitoneal injection of 2-phenylparabenzoquinone and the algesia manifests itself in repeated abdominal contractions with an extension of the rear limbs and contorsions of the body ("writhing test").

Compound: O=C(Cc1ccc(-c2ccccc2)cc1)Nc1ccccn1 [Diphenpyramide, N-2-pyridinyl-(1,1'-biphenyl)-4-acetamide]
- ED50 [1]: 22.5 mg/kg
- ED50 [2]: 19.9 mg/kg
- TD50 (in vivo): 76 mg/kg
- ED50 ([3]; read-out: Analgesic activity (against pain caused by 2-phenyl-p-benzo-quinone in mice) ED50): 97 mg/kg

Compound: O=C(O)Cc1ccc(-c2ccccc2)cc1 [reference compound]
- Temperature change Δt after administration of the substance ([1]; 3 mg/kg os, 1 h): -0.48 °C
- Temperature after administration of the substance, t ([1]; 3 mg/kg os, 2 h): 37.81±0.05 °C
- Temperature change Δt after administration of the substance ([1]; 3 mg/kg os, 2 h): -0.65 °C
- P/S, ratio of protected animals with respect to total screened animals ([1]; 3 mg/kg os, 3 h): 2/10
- Temperature after administration of the substance, t ([1]; 3 mg/kg os, 3 h): 37.69±0.08 °C
- Temperature change Δt after administration of the substance ([1]; 3 mg/kg os, 3 h): -0.70 °C
- Temperature after administration of the substance, t ([1]; 3 mg/kg os, 4 h): 37.89±0.08 °C
- Temperature change Δt after administration of the substance ([1]; 3 mg/kg os, 4 h): -0.41 °C
- Temperature after administration of the substance, t ([1]; 3 mg/kg os, 5 h): 38.12±0.13 °C
- Temperature change Δt after administration of the substance ([1]; 3 mg/kg os, 5 h): -0.14 °C
- Temperature after administration of the substance, t ([1]; 3 mg/kg os, 6 h): 38.19±0.11 °C
- Temperature change Δt after administration of the substance ([1]; 3 mg/kg os, 6 h): -0.05 °C
- Temperature after administration of the substance, t ([1]; 6 mg/kg os, 1 h): 37.80±0.09 °C
- Temperature change Δt after administration of the substance ([1]; 6 mg/kg os, 1 h): -0.84 °C
- Temperature after administration of the substance, t ([1]; 6 mg/kg os, 2 h): 37.46±0.09 °C
- Temperature change Δt after administration of the substance ([1]; 6 mg/kg os, 2 h): -1.00 °C
- P/S, ratio of protected animals with respect to total screened animals ([1]; 6 mg/kg os, 3 h): 5/10
- Temperature after administration of the substance, t ([1]; 6 mg/kg os, 3 h): 37.28±0.07 °C
- Temperature change Δt after administration of the substance ([1]; 6 mg/kg os, 3 h): -1.11 °C
- Temperature after administration of the substance, t ([1]; 6 mg/kg os, 4 h): 37.40±0.09 °C
- Temperature change Δt after administration of the substance ([1]; 6 mg/kg os, 4 h): -0.90 °C
- Temperature after administration of the substance, t ([1]; 6 mg/kg os, 5 h): 37.65±0.10 °C
- Temperature change Δt after administration of the substance ([1]; 6 mg/kg os, 5 h): -0.63 °C
- Temperature after administration of the substance, t ([1]; 6 mg/kg os, 6 h): 37.81±0.12 °C
- Temperature change Δt after administration of the substance ([1]; 6 mg/kg os, 6 h): -0.37 °C
- Temperature after administration of the substance, t ([1]; 12 mg/kg os, 1 h): 37.71±0.08 °C
- Temperature change Δt after administration of the substance ([1]; 12 mg/kg os, 1 h): -0.93 °C
- Temperature after administration of the substance, t ([1]; 12 mg/kg os, 2 h): 37.33±0.06 °C
- Temperature change Δt after administration of the substance ([1]; 12 mg/kg os, 2 h): -1.13 °C
- P/S, ratio of protected animals with respect to total screened animals ([1]; 12 mg/kg os, 3 h): 8/10
- Temperature after administration of the substance, t ([1]; 12 mg/kg os, 3 h): 37.09±0.07 °C
- Temperature change Δt after administration of the substance ([1]; 12 mg/kg os, 3 h): -1.30 °C
- Temperature after administration of the substance, t ([1]; 12 mg/kg os, 4 h): 37.18±0.07 °C
- Temperature change Δt after administration of the substance ([1]; 12 mg/kg os, 4 h): -1.12 °C
- Temperature after administration of the substance, t ([1]; 12 mg/kg os, 5 h): 37.43±0.08 °C
- Temperature change Δt after administration of the substance ([1]; 12 mg/kg os, 5 h): -0.93 °C
- Temperature after administration of the substance, t ([1]; 12 mg/kg os, 6 h): 37.58 °C
- Temperature change Δt after administration of the substance ([1]; 12 mg/kg os, 6 h): -0.66 °C
- ED50 [1]: 6 mg/kg
- ED50 [2]: 10.9 mg/kg
- TD50 (in vivo): 16.5 mg/kg
- Contorsions % (change vs controls) ([3]; 5 minutes): -27%
- No. Contorsions ([3]; 5 minutes): 33.4 ± 3.0
- Contorsions % (change vs controls) ([3]; 15 minutes): -41%
- No. Contorsions ([3]; 15 minutes): 31.0 ± 4.7
- Contorsions % (change vs controls) ([3]; 30 minutes): -57%
- No. Contorsions ([3]; 30 minutes): 21.3 ± 2.6
- Contorsions % (change vs controls) ([3]; 1 hour): -49%
- No. Contorsions ([3]; 1 hour): 25.6 ± 2.9
- Contorsions % (change vs controls) ([3]; 2 hours): -42%
- No. Contorsions ([3]; 2 hours): 25.1 ± 2.8
- Contorsions % (change vs controls) ([3]; 3 hours): -47%
- No. Contorsions ([3]; 3 hours): 26.0 ± 4.0
- Contorsions % (change vs controls) ([3]; 4 hours): -28%
- No. Contorsions ([3]; 4 hours): 34.9 ± 3.6
- Contorsions % (change vs controls) ([3]; 5 hours): -1%
- No. Contorsions ([3]; 5 hours): 45.0 ± 2.3
- ED50 ([3]; mice, orally, read-out: ED50, analgesic activity (writhing test)): 12 mg/kg
